Test results taken from patent US4990703A, “Novel tetrahydronaphthalene and indane derivatives” (Hoffmann-La Roche Inc., priority 1989, dated 1991).

Key:
[1] = test system: squamous metaplasia of the vaginal epithelium; assay: Antimetaplastic activity in the rat (hormone-induced squamous metaplasia of the vaginal epithelium); type: in vivo, Female Holtzmann rats; settings: oral; all-trans-retinoic acid = 1; from average effective dosages (Behrens and Karber)
Excerpt: (D) The antimetaplastic activity can also be determined in rats according to the following method. Female Holtzmann rats weighing approximately 100 g are ovarectomized under Thiogenal narcosis after an adaptation period of 8 days and are used in the test after a further 14 days. In each case two animals are placed in a cage with free access to feed which contains approximately 2000 IU of vitamin A determined analytically. Prior to the oral administration of the test compound the animals are treated subcutaneously each day on 6 successive days with 1 μg of estradiol benzoate and 250 μg of testosterone propionate dissolved in 0.1 ml of sesame oil. […] 2 days after the oral administration of the test substance the result of the reaction is again read off on the vaginal epithelium. The area method according to Behrens and Karber is employed to calculate the average effective dosages.

[2] = test system: testosterone-stimulated sebum secretion; assay: Inhibition of sebum production in the rat; type: in vivo, rat (castrated male); settings: 100 μg/rat p.o., daily for 14 days
Procedure: (E) The activity of the compounds I on sebum secretion in rats was determined according to the following procedure. Male rats of approximately 50-60 g body weight were castrated at the age of 21-22 days. One week after this operation the rats were washed in a cleansing solution in order to remove sebum which was excreted prior to the test period. Only the carrier materials used were administered to one group of rats. A further group of rats also simultaneously received 100 μg of testosterone propionate in 0.2 ml of sesame oil per rat and day. To a further group of rats there were administered daily per rat 100 μg of testosterone propionate in 0.2 ml of sesame oil subcutaneously and the test compounds in various dosages in 0.2 ml of propylene glycol orally. The rats were thus-treated for 14 days. On the 15th day the sebum from the skin surface and the pelt was removed by immersing the entire body of the test animals in a determined volume of acetone and bathing therein for 2 minutes. An aliquot of the solvent bath was evaporated and the solid residue was determined gravimetrically. The inhibition of the testosterone-stimulated increase in the serum secretion in comparison to the corresponding values from rats treated only with testosterone propionate was used as the measurement for the activity.

[3] = test system: keratin-filled utriculi of the rhino mouse; assay: Anti-keratinizing activity in the rhino mouse; type: in vivo
Excerpt: (A) The antikeratinizing activity can be determined on the rhino mouse model according to the following procedure. The skin of the rhino mouse is characterized by the presence of keratin-filled utriculi of the epidermis and subcutaneous cysts, both of which are derived from hair follicles. The administration of retinoids leads to a hyperproliferation of the epidermis and of the epithelial lining of the utriculi. The thickening of the epidermis and the reduction in the size of the utriculi lead to a normalization of the altered structure of the epithelial layer. The daily topical application of 0.1 ml/cm^2 skin of the rhino mouse of a 3% acetone solution of an active test compound over a period of 3 weeks or the thrice weekly oral administration in arachis oil over a period of weeks leads to a significant proliferation of the epidermis and a striking reduction of the keratin-filled utriculi.

[4] = test system: transplantable chondrosarcoma of the rat; assay: Activity on transplantable chondrosarcoma of the rat; type: in vivo, rat (albino rats); settings: five times per week for 24 days
Procedure: (C) Furthermore, the activity on tumours can be determined on the transplantable chondrosarcoma of the rat according to the following method. The solid tumour of a donor animal is finely minced and suspended in phosphate buffer/sodium chloride solution. 0.5 ml of the 30% tumour suspension is implanted subcutaneously into albino rats.
The transplanted rats are divided into test groups of in each case 8 animals. The test compounds are suspended in arachis oil and administered orally five times per week for 24 days. The tumours are excised and weighed on day 24. The results are expressed in the quotient C/T which is calculated as follows: [formula]

[5] = test system: chemically-induced breast tumours; assay: Prophylaxis of chemically-induced breast tumours (dimethylbenz(a)anthracene); type: in vivo, Female Sprague-Dawley rats; settings: 11 weeks
Procedure: (B) The activity in the prevention of chemically-induced breast tumours can be determined according to the following procedure. Female Sprague-Dawley rats are kept under temperature-controlled and light-controlled conditions, with free access to drinking water and feed. At the age of 50 days 15 mg of dimethylbenz(a)anthracene disolved in arachis oil are administered to each rat by means of a probang. The treatment with the test compounds begins 1 day after the administration of the carcinogen. The body weights of the test animals are recorded and the tumours are palpated weekly and measured with a vernier caliper. The volumes are calculated according to the formula [formula] in which D is the larger diameter of the tumour ellipsoid and d is the smaller diameter of the tumour ellipsoid. After 11 weeks the test is terminated and evaluated. In this test there are used in addition to 30 control animals, which receive exclusively normal feed the following two groups of test animals:
1. 33 rats to which are administered daily 30 mg/kg of test compound mixed with the feed.
2. 36 rats to which are administered daily 90 mg/kg of test compound mixed with the feed.

SMILES: CC1=C(/C=C/C(C)=C/C=C/C(C)=C/C(=O)O)C(C)(C)CCC1 [all-Trans-retinoic acid, reference compound]
- Relative activity [1]: 1

SMILES: C/C(=C\c1ccc(I)cc1)c1ccc2c(c1)C(C)(C)CCC2(C)C [e, (E)-6-[p-iodo-α-methylstyryl]-1,2,3,4-tetrahydro-1,1,4,4-tetramethylnaphthalene]
- Inhibition of testosterone-stimulated sebum secretion [2]: 71%

SMILES: C/C(=C\c1ccccc1)c1ccc2c(c1)C(C)(C)CC2(C)C [d, 1,1,3,3-tetramethyl-5-[(E)-α-methylstyryl]indane]
- Diameter of the utriculus ([3]; 133 mg/kg p.o.): 125 μm
- Reduction (of the diameter of the utriculus) ([3]; 133 mg/kg p.o.): 27%

SMILES: C/C(=C\c1ccc(Cl)cc1)c1ccc2c(c1)C(C)(C)CCC2(C)C [f, (E)-6-[p-chloro-α-methylstyryl]-1,2,3,4-tetrahydro-1,1,4,4-tetramethylnaphthalene]
- Quotient C/T of tumour weight of the untreated control animals and of the treated animals ([4]; 120 mg/kg p.o.): 1.6

SMILES: C/C(=C\c1ccc(F)cc1)c1ccc2c(c1)C(C)(C)CCC2(C)C [a, (E)-6-(p-fluoro-α-methylstyryl)-1,2,3,4-tetrahydro-1,1,4,4-tetramethylnaphthalene]
- Average number of tumours per rat ([5]; 30 mg/kg p.o. daily in feed): 47 % of controls
- Average tumour volume per rat in mm^3 [% of controls] ([5]; 30 mg/kg p.o. daily in feed): 22 % of controls
- Rats with tumours ([5]; 30 mg/kg p.o. daily in feed): 72 % of controls
- Average number of tumours per rat ([5]; 90 mg/kg p.o. daily in feed): 42 % of controls
- Average tumour volume per rat in mm^3 [% of controls] ([5]; 90 mg/kg p.o. daily in feed): 22 % of controls
- Rats with tumours ([5]; 90 mg/kg p.o. daily in feed): 69 % of controls
- Relative activity [1]: 0.87
- Diameter of the utriculus ([3]; 400 mg/kg p.o.): 117 μm
- Reduction (of the diameter of the utriculus) ([3]; 400 mg/kg p.o.): 21%
- Inhibition of testosterone-stimulated sebum secretion [2]: 67%

SMILES: COc1ccc(/C=C(\C)c2ccc3c(c2)C(C)(C)CCC3(C)C)cc1 [c, 1,2,3 4-tetrahydro-6-[(E)-p-methoxy-α-methylstyryl]-1,1,4,4-tetramethylnaphthalene]
- Quotient C/T of tumour weight of the untreated control animals and of the treated animals ([4]; 40 mg/kg p.o.): 2.0
- Quotient C/T of tumour weight of the untreated control animals and of the treated animals ([4]; 120 mg/kg p.o.): 24.0
- Average number of tumours per rat ([5]; 30 mg/kg p.o. daily in feed): 56 % of controls
- Average tumour volume per rat in mm^3 [% of controls] ([5]; 30 mg/kg p.o. daily in feed): 78 % of controls
- Rats with tumours ([5]; 30 mg/kg p.o. daily in feed): 92 % of controls
- Average number of tumours per rat ([5]; 90 mg/kg p.o. daily in feed): 43 % of controls
- Average tumour volume per rat in mm^3 [% of controls] ([5]; 90 mg/kg p.o. daily in feed): 32 % of controls
- Rats with tumours ([5]; 90 mg/kg p.o. daily in feed): 85 % of controls
- Relative activity [1]: 1.04
- Diameter of the utriculus ([3]; 133 mg/kg p.o.): 91 μm
- Reduction (of the diameter of the utriculus) ([3]; 133 mg/kg p.o.): 27%
- Diameter of the utriculus ([3]; 400 mg/kg p.o.): 61 μm
- Reduction (of the diameter of the utriculus) ([3]; 400 mg/kg p.o.): 51%

SMILES: CCCCCCCCc1cc2c(cc1C(C)=Cc1ccccc1)C(C)(C)CCC2(C)C [g, 1,2,3,4-tetrahydro-1,1,4,4-tetramethyl-6-(α-methylstyryl)-7-octylnaphthalene]
- Inhibition of testosterone-stimulated sebum secretion [2]: 71%

SMILES: C/C(=C\c1ccc(Br)cc1)c1ccc2c(c1)C(C)(C)CCC2(C)C [b, (E)6-(p-Bromo-methylstyryl)-1,2,3,4-tetrahydro-1,1,4,4-tetramethylnaphthaene]
- Quotient C/T of tumour weight of the untreated control animals and of the treated animals ([4]; 120 mg/kg p.o.): 1.6
- Average number of tumours per rat ([5]; 30 mg/kg p.o. daily in feed): 87 % of controls
- Average tumour volume per rat in mm^3 [% of controls] ([5]; 30 mg/kg p.o. daily in feed): 90 % of controls
- Rats with tumours ([5]; 30 mg/kg p.o. daily in feed): 106 % of controls
- Average number of tumours per rat ([5]; 90 mg/kg p.o. daily in feed): 87 % of controls
- Average tumour volume per rat in mm^3 [% of controls] ([5]; 90 mg/kg p.o. daily in feed): 43 % of controls
- Rats with tumours ([5]; 90 mg/kg p.o. daily in feed): 99 % of controls
- Relative activity [1]: 0.77
- Diameter of the utriculus ([3]; 400 mg/kg p.o.): 131 μm
- Reduction (of the diameter of the utriculus) ([3]; 400 mg/kg p.o.): 19%
- Inhibition of testosterone-stimulated sebum secretion [2]: 65%
